Laboratory results reported in patent US7927794B2, “Methods for identifying a biosynthetic pathway gene product” (priority 2003, dated 2011).

Legend:
E. coli strain DYM1 = experiment: Complementation of isoprenoid-deficient ispC mutant E. coli strain DYM1 on supplemented plates; assay type: cell-based, Escherichia coli
Description: (§1) Campos (2001) Biochem. J. 353:59-67.
To increase the intracellular concentration of FPP substrate supplied to the amorphadiene synthase, the genes encoding the mevalonate-dependent isoprenoid pathway from S. cerevisiae were assembled into operons and expressed in E. coli. To simplify the task of engineering an eight-gene biosynthetic pathway, we divided the genes into two operons, referred to as the “top” and “bottom”. The top operon, MevT, transforms the ubiquitous precursor acetyl-CoA to (R)-mevalonate in three enzymatic steps (FIG. 13). The bottom operon converts the (R)-mevalonate to IPP, DMAPP and/or FPP depending on the construct (FIG. 13). To test the functionality of the heterologous pathway, an E. coli strain deficient in isoprenoid synthesis (strain DYM1) was transformed with plasmids expressing the three different bottom operon constructs pMevB, pMBI and pMBIS (FIG. 13). Strain DYM1 has a deletion in the ispC gene, which encodes 1-deoxy-D-xylulose-5-phosphate reductoisomerase (Kuzuyama et al. (1999) supra) and therefore, cannot synthesize 2-C-methyl-D-erythritol 4-phosphate, an intermediate in the endogenous isoprenoid biosynthetic pathway (FIG. 3). As expected, all strains grew in the presence of 2-C-methyl-D-erythritol (ME), but only the strains harboring pMBI or pMBIS and not pMevB grew on plates supplemented with 1 mM mevalonate in the absence of ME. […]

engineered E. coli = experiment: Growth and metabolite analysis of E. coli expressing S. cerevisiae HMG-CoA synthase (pHMGS); assay type: cell-based, Escherichia coli; details: accumulation on expression of HMG-CoA synthase from pHMGS
Description: As a specific example, the accumulation of hydroxymethylglutaryl-CoA (HMG-CoA) is toxic to engineered E. coli.
(§2) FIG. 10. Cultures of E. coli expressing either no heterologous genes (Control), the S. cerevisiae HMG-CoA synthase alone (pHMGS & Empty Vector), or both the S. cerevisiae HMG-CoA synthase and HMG-CoA reductase (pHMGS & pHMGR) on separate expression vectors.
as §2, with “11. Metabolite analysis of cultures” for “10. Cultures”, “and” for “&”, “vectors. E. coli expressing HMG-CoA synthase alone accumulated HMG-CoA.” for “vectors.”

E. coli DH10B = experiment: Growth (optical density) of E. coli harboring mevalonate pathway operon plasmids in media supplemented with exogenous mevalonate; parameters: growth of strains lacking the ADS gene: dose or concentration left out as unconfirmed
Procedure: For the growth studies, the optical density (OD) of cultures expressing the various recombinant pathways was measured with a microtiter plate reader (SpectraMax, Molecular Devices) from 200 μl cultures of LB broth in 96-well plates incubated at 37° C. with continuous shaking. […] The DYM1 strain was propagated on LB medium containing 0.5 mM methylerithrytol (ME) and transformed DYM1 cells were first allowed to recover on plates supplemented with ME before streaking them on test media.
To investigate the cause of this inhibition, measured the growth of E. coli DH10B from strains harboring either the pMKPMK, pMevB, pMBI or pMBIS plasmid in media supplemented with increasing concentrations of exogenous mevalonate was measured. […] To compare the intracellular prenyl pyrophosphate pools in the same strains, resting cells harboring the different mevalonate operon constructs were fed radiolabeled mevalonate and the labeled metabolites were tracked. […] Simultaneous expression of the amorphadiene synthase consumed the excess FPP pool accumulated in the MBIS host, as shown by a decrease in intracellular FPP.
However, in the absence of the IPP isomerase, FPP synthase and terpene synthase to channel the pathway intermediates to the terpene olefin, toxic levels of intracellular pyrophosphates, especially IPP, may accumulate.

E. coli = experiment: Growth of E. coli overproducing IPP and DMAPP (MK, PMK, MPD, IPP isomerase from pBBR1MCS-2) with various concentrations of mevalonate; assay type: cell-based, Escherichia coli; details: all concentrations of mevalonate studied
Description: as §1
A genomic library from the isoprene-producing bacteria Bacillus subtilis 6051 was expressed from the pTrc99A plasmid in an E. coli strain engineered (genetically modified) to produce elevated levels of IPP and DMAPP. The engineered screening strain expressed nucleic acids encoding mevalonate kinase, phosphomevalonate kinase, mevalonate diphosphate decarboxylase, and IPP/DMAPP isomerase from the pBBR1MCS plasmid, as described in Example 1. Mevalonate was present in the growth medium at a concentration of 10 mM. After several rounds of growth, only plasmids containing genomic fragments with either yhfR or nudF were found in the genomic library.
FIG. 7. […] Triplicate cultures of E. coli expressing the genes encoding for mevalonate kinase, phosphomevalonate kinase, mevalonate diphosphate decarboxylase, and IPP isomerase from the pBBR1MCS-2 plasmid were grown in the presence of various concentrations of mevalonate present in the culture medium. The cells also harbor the pTRC99A expression vector.
FIG. 8. […] Triplicate cultures were set up, which were identical to those depicted in FIG. 7, except that pTRC99A was replaced by pYhfR. The pYhfR plasmid is a pTrc99A backbone that contains the gene yhfR. The yhfR gene was isolated from a plasmid library containing genomic DNA from Bacillus subtilis 6051.
FIG. 9. […]

## C[C@](O)(CO)[C@H](O)CO [2-C-methyl-D-erythritol]
E. coli strain DYM1; in the presence of 2-C-methyl-D-erythritol (ME)
  growth of DYM1 strains harboring pMevB, pMBI or pMBIS: grew

## CC(C)(COP(=O)(O)OP(=O)(O)OC[C@H]1O[C@@H](n2cnc3c(N)ncnc32)[C@H](O)[C@@H]1OP(=O)(O)O)[C@@H](O)C(=O)NCCC(=O)NCCSC(=O)C[C@@](C)(O)CC(=O)O [HMG-CoA, hydroxymethylglutaryl-CoA]
Engineered E. coli
  effect of intracellular accumulation on engineered E. coli: toxic

## C=C(C)CCO[P@@](=O)(O)OP(=O)(O)O [IPP, isopentenyl diphosphate]
E. coli DH10B; accumulation in cells with high flux through the mevalonate pathway (pMevB)
  effect of intracellular accumulation on cell growth: toxic and inhibits normal cell growth

## CC(O)(CCO)CC(=O)O (stereo not shown) [mevalonate]
E. coli DH10B; 5 mM mevalonate in the media
  growth of cells harboring pMKPMK, pMBI or pMBIS: did not affect the growth
  growth of cells harboring pMevB: inhibited the growth
E. coli DH10B; 10 mM mevalonate
  growth of cells expressing MBIS: growth inhibition
E. coli DH10B; all mevalonate concentrations, IPTG-inducible promoters
  growth of cells co-expressing the MBIS operon and the amorphadiene synthase gene: normal growth rates
E. coli DH10B; approximately 2 hours after addition of mevalonate and IPTG
  growth of strains lacking the ADS gene: Growth inhibition
E. coli DH10B; greater than 10 mM mevalonate, MBIS cultures where amorphadiene synthase was not expressed
  growth of control cultures: Severe growth inhibition
E. coli DH10B; media supplemented with 1 mM mevalonate
  growth on expression of the operons: only a slight decrease in growth
E. coli strain DYM1; plates supplemented with 1 mM mevalonate in the absence of ME
  growth of DYM1 strains harboring pMBI or pMBIS: grew
E. coli; FIG. 8
  growth of cells harboring pYhfR (yhfR): No growth inhibition
E. coli; FIG. 9
  growth of cells harboring pC9b (nudF): No growth inhibition
